{"source": "patent US20050027003A1", "about": "“Methods of therapeutic treatment using retinoids with reduced side effects” (Allergan, Inc., priority 2003, published 2005)", "format_in_all_cases": "in vivo, human", "key": {"[1]": {"assay": "Example 8: PK and PD interactions of oral tazarotene and oral contraceptives", "details": "up to 6 mg once daily", "procedure": "It is the objective of this study to determine if there are pharmacokinetic (PK) and pharmacodynamic (PD) interactions between tazarotene and commonly prescribed oral contraceptives (OCs) when coadministered together.\nThree separate clinical studies are conducted to evaluate the PK and PD interactions of oral tazarotene and OCs in healthy volunteers. Two studies evaluate daily doses of norethindrone (NE)/ethinyl estradiol (EE) with daily doses of tazarotene 1.1 mg (N=27) and 6 mg (N=29). The third study assesses the daily doses of norgestimate (NGM)/EE with daily doses of tazarotene 6 mg (N=26). OCs are administered for three consecutive menstrual cycles. Daily doses of tazarotene are started during the 2nd cycle and continued through the end of the studies. PK parameters for EE, NE, and NGM (AUC0-24 and Cmax) are determined before tazarotene dosing and after tazarotene dosing on day 6 of the 2nd and 3rd cycles. Serum concentrations of luteinizing hormone (LH) and follicle-stimulating hormone (FSH)-markers of contraceptive efficacy are also evaluated before tazarotene dosing and after tazarotene dosing on days 2, 4, and 6 of the 2nd and 3rd cycles. Serum progesterone levels are assessed on days 18 and 20 of the 2nd and 3rd cycles. […]"}, "[2]": {"tested_on": "patients with moderate to very severe plaque psoriasis", "assay": "Example 4: open-label extension study of oral tazarotene in plaque psoriasis", "details": "4.5 mg once daily", "procedure": "Two multicenter, double-blind, placebo-controlled studies ware conducted to evaluate the efficacy and safety of oral tazarotene (4.5 mg once daily) in patients with moderate to very severe plaque psoriasis. […] Efficacy evaluations include overall lesional assessment (OLA), percent body surface area involvement, global response to treatment, plaque elevation, scaling, and erythema. OLA is graded on a 6-point scale (0=none, 1=minimal, 2=mild, 3=moderate, 4=severe, 5=very severe)."}, "[3]": {"tested_on": "patients with moderate to very severe plaque psoriasis", "assay": "Example 4: open-label extension study of oral tazarotene in plaque psoriasis", "details": "4.5 mg once daily, 12 weeks, across both groups"}, "[4]": {"tested_on": "patient with severe psoriasis", "assay": "Example 9: patient with severe psoriasis taking Ortho-Novum, tazarotene 6 mg per day", "details": "after 30 days", "source_text": "The patient presents symptoms of severe psoriasis. The symptoms include lesions approximately 4 to 10 centimeters across appearing as raised patches of wine red skin many of which are covered in silvery white scales. The lesions are mostly dry and rough, and quite often noticeably warm to the touch. The lesions are present on the elbows, knees, scalp, and groin area. The patient experiences intense burning and itching associated with the lesions.\nThe patient is currently taking Ortho-Novum® for contraception.\nTazarotene at a dose of 6 mg per day is prescribed."}, "patients with acne": {"tested_on": "patients with acne", "assay": "Example 6: studies of oral tazarotene for acne, adverse events (Table 2)", "details": "combined data from Studies 1 and 2 (N = 223)", "procedure": "Studies are conducted on orally administered tazarotene for the treatment of acne. Adverse events (side effects) are monitored."}}, "data": [{"smiles": "CCOC(=O)c1ccc(C#Cc2ccc3c(c2)C(C)(C)CCS3)nc1", "note": "[tazarotene]", "values": [{"measurement": "effect on PK or efficacy of NE/EE and NGM/EE oral contraceptives", "setting": "[1]", "result": "does not affect"}, {"measurement": "changes in liver function test values or cholesterol levels", "setting": "[2]", "result": "no clinically significant changes"}, {"measurement": "serious adverse events considered related to the study treatment", "setting": "[2]", "result": "no serious adverse events"}, {"measurement": "incidence of arthralgia", "setting": "[2]; 12 weeks, across both groups", "result": 20, "unit": "%"}, {"measurement": "incidence of asthenia", "setting": "[2]; 12 weeks, across both groups", "result": 6, "unit": "%"}, {"measurement": "incidence of back pain", "setting": "[2]; 12 weeks, across both groups", "result": 11, "unit": "%"}, {"measurement": "incidence of cheilitis", "setting": "[2]; 12 weeks, across both groups", "result": 70, "unit": "%"}, {"measurement": "incidence of hypertriglyceridemia", "setting": "[2]; 12 weeks, across both groups", "result": 6, "unit": "%"}, {"measurement": "incidence of myalgia", "setting": "[2]; 12 weeks, across both groups", "result": 15, "unit": "%"}, {"measurement": "incidence of dry skin", "setting": "[3]", "result": 25, "unit": "%"}, {"measurement": "incidence of headache", "setting": "[3]", "result": 11, "unit": "%"}, {"measurement": "incidence of infection", "setting": "[3]", "result": 10, "unit": "%"}, {"measurement": "severity of lesions", "setting": "[4]", "result": "substantially lessened"}, {"measurement": "symptoms of itching and burning", "setting": "[4]", "result": "relieved"}, {"measurement": "Adverse event: Cheilitis", "setting": "patients with acne", "result": "134 (60.1) number (%) of patients"}, {"measurement": "Adverse event: Conjunctivitis", "setting": "patients with acne", "result": "0 (0.0) number (%) of patients"}, {"measurement": "Adverse event: Desquamation central face/Desquamation", "setting": "patients with acne", "result": "1 (0.4) number (%) of patients"}, {"measurement": "Adverse event: Dry Skin", "setting": "patients with acne", "result": "79 (35.4) number (%) of patients"}, {"measurement": "Adverse event: Dry nose", "setting": "patients with acne", "result": "7 (3.1) number (%) of patients"}, {"measurement": "Adverse event: Epistaxis", "setting": "patients with acne", "result": "6 (2.7) number (%) of patients"}, {"measurement": "Adverse event: Fingertip peeling/Desquamation", "setting": "patients with acne", "result": "1 (0.4) number (%) of patients"}, {"measurement": "Adverse event: Headache", "setting": "patients with acne", "result": "26 (11.7) number (%) of patients"}, {"measurement": "Adverse event: Irritation of eyes", "setting": "patients with acne", "result": "0 (0.0) number (%) of patients"}, {"measurement": "Adverse event: Joint pain/Arthralgia", "setting": "patients with acne", "result": "18 (8.1) number (%) of patients"}, {"measurement": "Adverse event: Peeling/Desquamation", "setting": "patients with acne", "result": "1 (0.4) number (%) of patients"}, {"measurement": "Adverse event: Pruritus", "setting": "patients with acne", "result": "10 (4.5) number (%) of patients"}, {"measurement": "Adverse event: Rash-dermatitis/Rash", "setting": "patients with acne", "result": "7 (3.1) number (%) of patients"}, {"measurement": "Adverse event: Red Scaly face/Desquamation", "setting": "patients with acne", "result": "1 (0.4) number (%) of patients"}, {"measurement": "Adverse event: Skin fragility/Skin disorder", "setting": "patients with acne", "result": "1 (0.4) number (%) of patients"}]}]}
